According to US9486440B2, “Uses of indole-ketones or indolidones as neuro-protective drugs” (UNIVERSITY OF MACAU, priority 2011, dated 2016):

Legend:
PC12 cells = experiment: MPP+-induced neurotoxicity in PC12 cells, MTT assay; type: cell-based; conditions: for cell proliferative or cytotoxic effects of the drug alone, PC12 cells: alone for 26 hours, 10 μM SU4312, 3 μM PTK787/ZK222584; for toxicity to PC12 cells at higher concentration: data not shown; for MPP+-induced neuronal death in PC12 cells (MTT): pre-treatment 2 hours, then 1 mM MPP+ for 24 hours, SU4312 10 μM, PTK787/ZK222584 3 μM
Description: The human neuroblastoma SH-SY5Y cells were obtained from ATCC. The cells were maintained in supplemented Dulbecco's modified eagle medium (DMEM), 10% fetal bovine serum, 100 U/ml penicillin, and 100 μg/ml streptomycin in a 37° C., 5% CO2 incubator. PC12 pheochromocytoma cells were also obtained from ATCC. The cells were cultured in medium that consisted of DMEM, 10% heat-inactivated horse serum, 5% fetal bovine serum, 100 U/ml penicillin, and 100 μg/ml streptomycin in a 37° C., 5% CO2 incubator. All experiments were carried out 48 hours after the cells were seeded.
The percentage of surviving neurons in the presence of SU4312 and/or MPP^+ was estimated by determining the activity of mitochondrial dehydrogenases with 3(4,5-dimethylthiazol-2-yl)-2.5-diphenyltetrazolium bromide (MTT) assay (Li et al., 2007). The assay was performed according to the specifications of the manufacturer (MTT kit I; Roche Applied Science). Briefly, the neurons were cultured in 96-well plates, 10 μl of 5 mg/ml MTT labeling reagent was added to each well containing cells in 100 μl of medium, and the plates were incubated for 4 hours in a humidified incubator at 37° C. After the incubation, 100 μl of the solvating solution (0.01 N HCl in 10% SDS solution) was added to each well for 16-20 hours. Absorbance of the samples was measured at a wavelength of 570 nm with 655 nm as a reference wavelength. Unless otherwise indicated, the extent of MTT conversion in cells exposed to MPP^+ is expressed as a percentage of the control.

zebrafish = experiment: Toxicity to zebrafish; type: in vivo; conditions: SU5416 10 μM, VRI 3 μM, SU4312 up to 30 μM
Description: (§1) Wild-type zebrafish (AB strain) and Tg (fli-1:EGFP) transgenic zebrafish were maintained as described in the Zebrafish Handbook (Westerfield, 1993). Zebrafish embryos were generated by natural pair-wise mating (3-12 months old) and raised at 28.5° C. in embryo medium (13.7 mM NaCl, 540 μM KCl, pH 7.4, 25 μM Na2HPO4, 44 μM KH2PO4, 300 μM CaCl2, 100 μM MgSO4, 420 μM NaHCO3, pH 7.4). […] An equal concentration of DMSO in embryo medium was used as vehicle control in each experiment.
Wild-type zebrafish (AB strain) and Tg(fli-1:EGFP) transgenic zebrafish were maintained as described in the Zebrafish Handbook (Westerfield, 1993). Zebrafish embryos were generated by natural pair-wise mating (3-12 months old) and were raised at 28.5° C. in embryo medium (13.7 mM NaCl, 540 μM KCl, pH 7.4, 25 μM Na2HPO4, 44 μM KH2PO4, 300 μM CaCl2, 100 μM MgSO4, 420 μM NaHCO3, pH 7.4). […] Equal concentration of DMSO in embryo medium was used as vehicle control in each experiment.

[1] = system: DA neurons in the zebrafish brain; experiment: MPTP zebrafish, whole-mount immunostaining against tyrosine hydroxylase; type: in vivo; conditions: 200 μM MPTP, 2 days from 1 dpf; SU4312 3-30 μM, PTK787/ZK222584 0.3-3 μM, SU5416 0.1-1 μM, VRI 0.03-0.3 μM
Description: as §1

zebrafish larvae = experiment: Locomotion behavioral test of zebrafish larvae; type: in vivo; conditions: for MPTP-induced deficit of swimming behavior (total distance travelled): 200 μM MPTP 2 days, then 10 μM MPTP plus drug 3 days, L-deprenyl 20 μM, L-dopa 150 μM
Description: as §1
Thus the MPTP exposure needs to last 5 day from 1 dpf. […] Thus subsequent locomotion behavioral studies were done with 200 μM MPTP for treatment for 2 days at 1 dpf then replacing insult with 10 μM MPTP for incubation for another 3 days.
(§2) After drug treatment, zebrafish larvae at 6 dpf were transferred into 96-well plates (1 fish/well and 12 larvae/group). Fishes responded with excessive stress reaction (such as rapid and disorganized swimming or immobility for 2 min) due to the handling and monitoring of the behavior were discarded. The experiments were performed in a calm enclosed area. The larvae were allowed to habituate to the new environment for 30 min prior to experiments. Behavior was monitored by an automated video tracking system (Viewpoint, ZebraLab, LifeSciences). The 96-well plates and camera were housed inside a Zebrabox and the swimming pattern of each fish was recorded for 10 min and repeated 3 times, once every other 10 min. The total distance moved was defined as the distance (in cm) that the fish had moved during one session (10 min).
Normally as late as 3 dpf, zebrafish larvae show very little spontaneous swimming, but by 5 dpf they spontaneously swim longer distances and independently search for food. The MPTP exposure therefore needs to last 5 days from 1 dpf. […] Thus subsequent locomotion behavioral studies were performed with 200 μM MPTP for 2-day treatment at 1 dpf then replacing with media containing 10 μM MPTP for another 3-day incubation.
as §2, with “The larvae were discarded due to” for “Fishes responded with”, “reaction to the handling and monitoring of behavior” for “reaction”, “min).” for “min) due to the handling and monitoring of the behavior were discarded.”, “sealed” for “enclosed”, “min. Swimming behavior” for “min prior to experiments. Behavior”, “for” for “repeated”

SH-SY5Y cells = experiment: MPP+-induced neurotoxicity in SH-SY5Y cells, MTT assay; type: cell-based, human; conditions: for cell proliferative or cytotoxic effects of the drug alone, SH-SY5Y cells: alone for 26 hours, 10 μM SU4312, 3 μM PTK787/ZK222584, 0.3 μM sunitinib; for toxicity to SH-SY5Y cells at higher concentration: higher concentration (sunitinib 1 μM), data not shown; for MPP+-induced neuronal death in SH-SY5Y cells (MTT): pre-treatment 2 hours, then 1 mM MPP+ for 24 hours
Description: The human neuroblastoma SH-SY5Y cells were obtained from ATCC. The cells were maintained in supplemented Dulbecco's modified eagle medium (DMEM), 10% fetal bovine serum, 100 U/ml penicillin, and 100 μg/ml streptomycin in a 37° C., 5% CO2 incubator. PC12 pheochromocytoma cells were also obtained from ATCC. The cells were cultured in medium that consisted of DMEM, 10% heat-inactivated horse serum, 5% fetal bovine serum, 100 U/ml penicillin, and 100 μg/ml streptomycin in a 37° C., 5% CO2 incubator. All experiments were carried out 48 hours after the cells were seeded. […] The assay was performed according to the specifications of the manufacturer (MTT kit I; Roche Applied Science). […] After the incubation, 100 μl of the solvating solution (0.01 N HCl in 10% SDS solution) was added to each well for 16-20 hours. Absorbance of the samples was measured at a wavelength of 570 nm with 655 nm as a reference wavelength. Unless otherwise indicated, the extent of MTT conversion in cells exposed to MPP^+ is expressed as a percentage of the control.

| Compound | cell proliferative or cytotoxic effects of the drug alone, PC12 cells (PC12 cells) | toxicity to PC12 cells at higher concentration (PC12 cells) | MPP+-induced neuronal death in PC12 cells (MTT) (PC12 cells) | toxicity to zebrafish (zebrafish) | MPTP-induced loss of DA neurons / decrease of TH+ region area [1] | MPTP-induced deficit of swimming behavior (total distance travelled) (zebrafish larvae) | swimming behavior of normal zebrafish larvae, drug alone (zebrafish larvae; without MPTP) | cell proliferative or cytotoxic effects of the drug alone, SH-SY5Y cells (SH-SY5Y cells) | toxicity to SH-SY5Y cells at higher concentration (SH-SY5Y cells) | MPP+-induced neuronal death in SH-SY5Y cells (MTT) (SH-SY5Y cells) | swimming behavior of normal zebrafish larvae, drug alone (zebrafish larvae; zebrafish, in vivo) | MPP+-induced neuronal death in SH-SY5Y cells (MTT) (SH-SY5Y cells; listed as PTK787) |
| --- | --- | --- | --- | --- | --- | --- | --- | --- | --- | --- | --- | --- |
| CN(C)c1ccc(C=C2C(=O)Nc3ccccc32)cc1 [SU4312, 3-[4-(dimethylamino)benzylidenyl]indolin-2-one] | did not show cell proliferative or cytotoxic effects | at higher concentration conferred toxicity | prevented MPP^+-induced dopaminergic neuronal death | did not induce any neurotoxicity | significantly alleviated the loss of DA neurons | ameliorated MPTP-induced deficit of swimming behavior | Neither SU4312 nor PTK787/ZK222584 treatment alone notably altered the swimming behavior | did not show cell proliferative or cytotoxic effects | at higher concentration conferred toxicity | prevented MPP^+-induced dopaminergic neuronal death at 3-10 μM in SH-SY5Y cells |  |  |
| Cc1cc(C)c(/C=C2\C(=O)Nc3ccccc32)[nH]1 [SU5416, (3Z)-3-[(3,5-dimethyl-1H-pyrrol-2-yl)methylidene]-1,3-dihydro-2H-indol-2-one] |  |  |  | showed toxicity to zebrafish | significantly prevented the decrease in the area of TH^+ region induced by MPTP | ameliorated the MPTP-induced deficit of swimming behavior |  |  |  |  |  |  |
| Clc1ccc(Nc2nnc(Cc3ccncc3)c3ccccc23)cc1 [PTK787/ZK222584] | did not show cell proliferative or cytotoxic effects | at higher concentration conferred toxicity | at 3 μM failed to block neuronal loss induced by MPP^+ |  |  | but not PTK787/ZK222584 ameliorated MPTP-induced deficit of swimming behavior |  | did not show cell proliferative or cytotoxic effects | at higher concentration conferred toxicity | at 3 μM failed to block neuronal loss induced by MPP^+ | Neither SU4312 nor PTK787/ZK222584 treatment alone notably altered the swimming behavior | at 1 and 3 μM failed to block neuronal loss induced by MPP^+ |
